Measurements: patent publication US11891362B1, “N2,N4-disubstituted pyrimidine-2,4-diamine compounds as antibacterial agents” (KING FAISAL UNIVERSITY, priority 2023, dated 2024)
Values after ≈ are worked out from the molar mass of the structure shown. Like-named read-outs stand apart in the source and are kept apart here.

Tests used:
[1] = test system: Bacillus subtilis MTCC 441; test: In vitro antibacterial activity, dilution susceptibility test (CLSI M07-A10); type: cell-based; details: MTCC441
Text: (§1) Enterococcus faecium resistant to VRE, and Gram-negative organisms including Klebsiella pneumonia, Escherichia coli, Pseudomonas aeruginosa.

[2] = test system: Enterococcus faecium ATCC 35667; test: as above; type: cell-based; details: ATCC35667
Text: as §1

[3] = test system: Enterococcus faecium ATCC 51559 (VRE resistant); test: as above; type: cell-based
Text: as §1

[4] = test system: Escherichia coli MTCC 443; test: as above; type: cell-based; details: MTCC443
Text: as §1

[5] = test system: Klebsiella pneumonia MTCC 618; test: as above; type: cell-based; details: Klebsiella pneumoniae, MTCC618
Text: as §1

[6] = test system: Pseudomonas aeruginosa MTCC 741; test: as above; type: cell-based; details: MTCC741
Text: as §1

[7] = test system: Staphylococcus aureus ATCC 29213; test: as above; type: cell-based; details: ATCC29213
Text: as §1

[8] = test system: Staphylococcus aureus ATCC BAA-1556 (MERSA resistant); test: as above; type: cell-based; details: ATCCBAA1556
Text: as §1

[9] = test system: Staphylococcus epidermidis; test: as above; type: cell-based
Text: as §1

[10] = test system: Mycobacterium tuberculosis H37Rv strain; test: Anti-tubercular properties, alamar blue microplate assay; type: cell-based; details: 168 h, seven days incubation, read-out: anti-mycobacterial activity (MIC)
[11] = target: T1, DNA gyrase from E. coli (Escherichia coli, UniProt P0AES4+P0AES6); test: Inhibitory activities on E. coli DNA gyrase (Inspiralis assay); type: biochemical
T1 construct: purchased Inspiralis
Procedure: First, the plates were rehydrated with buffer (20 mM Tris-HCl with pH 7.6, 0.01% w/v BSA, 0.05% v/v Tween 20, 137 mM NaCl) and the biotinylated oligonucleotide was then immobilized. After washing off the unbound oligonucleotide, the enzyme test was performed. The reaction volume of 30 μL in buffer (35 mM Tris×HCl with pH 7.5, 4 mM MgCl2, 24 mM KCl, 2 mM DTT, 1.8 mM spermidine, 1 mM ATP, 6.5% w/v glycerol, 0.1 mg/mL albumin) contained 1.5 U of DNA gyrase from E. coli, 0.75 μg of relaxed pNO1 plasmid, and 3 μL solution of the inhibitor in 10% DMSO and 0.008% Tween 20. Reaction solutions were incubated at 37° C. for 30 min. After that, the TF buffer (50 mM NaOAc with pH 5.0, 50 mM NaCl and 50 mM MgCl2) was added to terminate the enzymatic reaction. After additional incubation for 30 min at rt, during which biotinoligonucleotide-plasmid triplex was formed, the unbound plasmid was washed off using TF buffer and SybrGOLD in T10 buffer (10 mM Tris HCl with pH 8.0 and 1 mM EDTA) was added. The fluorescence was measured with a microplate reader (BioTek Synergy H4, excitation: 485 nm, emission: 535 nm). Initial screening was done at 100 or 10 μM concentration of inhibitors. […] GraphPad Prism software was used to calculate the IC50 values. The result is given as the average value of three independent measurements.

T1 sequence (P0AES4 whole entry, one chain of several): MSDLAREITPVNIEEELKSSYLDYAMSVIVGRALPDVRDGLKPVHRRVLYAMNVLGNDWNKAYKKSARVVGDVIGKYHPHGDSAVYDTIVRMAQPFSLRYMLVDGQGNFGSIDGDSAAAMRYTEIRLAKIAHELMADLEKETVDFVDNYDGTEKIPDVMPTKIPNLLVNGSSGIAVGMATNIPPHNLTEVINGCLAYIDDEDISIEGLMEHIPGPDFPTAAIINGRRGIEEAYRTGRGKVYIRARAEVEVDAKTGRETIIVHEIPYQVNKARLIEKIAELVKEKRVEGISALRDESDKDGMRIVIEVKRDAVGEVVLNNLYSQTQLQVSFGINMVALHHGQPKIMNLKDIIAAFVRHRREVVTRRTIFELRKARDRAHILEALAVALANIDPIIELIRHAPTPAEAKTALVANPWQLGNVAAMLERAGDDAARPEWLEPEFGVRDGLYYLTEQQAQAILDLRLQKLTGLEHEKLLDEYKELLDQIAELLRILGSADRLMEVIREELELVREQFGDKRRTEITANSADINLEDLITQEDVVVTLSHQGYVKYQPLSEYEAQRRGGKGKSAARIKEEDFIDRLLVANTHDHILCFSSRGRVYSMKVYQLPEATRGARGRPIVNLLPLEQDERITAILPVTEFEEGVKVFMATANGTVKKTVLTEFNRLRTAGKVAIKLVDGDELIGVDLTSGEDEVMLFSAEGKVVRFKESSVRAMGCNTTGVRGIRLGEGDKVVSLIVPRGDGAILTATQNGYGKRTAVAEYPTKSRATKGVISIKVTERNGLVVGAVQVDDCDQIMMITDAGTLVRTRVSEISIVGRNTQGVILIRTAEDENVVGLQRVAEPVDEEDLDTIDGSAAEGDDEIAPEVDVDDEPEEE

CC(=O)Nc1cccc(Nc2nccc(Nc3ccc(C(=O)O)cc3CN(C)C3CCCCC3)n2)c1 [Compound 7, 4-((2-((3-acetamidophenyl)amino)pyrimidin-4-yl)amino)-3-((cyclohexyl(methyl)amino)methyl)benzoic acid]
MIC [1]: 4 µg/mL (≈ 8.19 µM)
MIC [2]: 4 µg/mL (≈ 8.19 µM)
MIC [3]: 16 µg/mL (≈ 32.7 µM)
MIC [4]: 8 µg/mL (≈ 16.4 µM)
MIC ([5]; Klebsiella pneumonia MTCC 618, read-out: MIC): 4 µg/mL (≈ 8.19 µM)
MIC ([6]; Pseudomonas aeruginosa MTCC 741, read-out: MIC): 4 µg/mL (≈ 8.19 µM)
MIC [7]: 8 µg/mL (≈ 16.4 µM)
MIC [8]: 8 µg/mL (≈ 16.4 µM)
MIC [9]: 8 µg/mL (≈ 16.4 µM)
MIC [10]: 16 µg/mL (≈ 32.7 µM)
IC50 [11]: 250 nM

CN[C@H](CC(C)C)C(=O)N[C@H]1C(=O)N[C@@H](CC(N)=O)C(=O)N[C@H]2C(=O)N[C@H]3C(=O)N[C@H](C(=O)N[C@H](C(=O)O)c4cc(O)cc(O)c4-c4cc3ccc4O)[C@H](O)c3ccc(c(Cl)c3)Oc3cc2cc(c3O[C@@H]2O[C@H](CO)[C@@H](O)[C@H](O)[C@H]2O[C@H]2C[C@](C)(N)[C@H](O)[C@H](C)O2)Oc2ccc(cc2Cl)[C@H]1O [Vancomycin, reference compound]
MIC [5]: > 128 µg/mL
MIC ([6]; Pseudomonas aeruginosa): > 128 µg/mL
